Assay results as given in ChEMBL document CHEMBL1135953, “bis-Azaaromatic quaternary ammonium analogues: ligands for alpha4beta2* and alpha7* subtypes of neuronal nicotinic receptors” (Bioorg Med Chem Lett, 2002).

How the values were obtained:
[1] = molecular target: Neuronal acetylcholine receptor subunit alpha-7 (Rattus norvegicus, UniProt Q05941); assay: Binding affinity nicotinic acetylcholine receptor alpha-7 was evaluated by its ability to inhibit [3H]methyllycaconitine ([3H]-MLA) binding to rat brain membranes; design: species or system Membrane
[2] = molecular target: Neuronal acetylcholine receptor; alpha4/beta2 (Rattus norvegicus, UniProt P09483+P12390); assay: Binding affinity for nicotinic acetylcholine receptor alpha4-beta2 was evaluated by its ability to inhibit [3H]NIC binding to rat brain membranes; design: species or system Membrane
Rattus norvegicus = species on record: Rattus norvegicus; assay: Compound was evaluated for inhibiting NIC-evoked [86Rb+] efflux from rat thalamic synaptosomes; format: functional; settings: Brain

Chain of Neuronal acetylcholine receptor subunit alpha-7 (Q05941 whole entry): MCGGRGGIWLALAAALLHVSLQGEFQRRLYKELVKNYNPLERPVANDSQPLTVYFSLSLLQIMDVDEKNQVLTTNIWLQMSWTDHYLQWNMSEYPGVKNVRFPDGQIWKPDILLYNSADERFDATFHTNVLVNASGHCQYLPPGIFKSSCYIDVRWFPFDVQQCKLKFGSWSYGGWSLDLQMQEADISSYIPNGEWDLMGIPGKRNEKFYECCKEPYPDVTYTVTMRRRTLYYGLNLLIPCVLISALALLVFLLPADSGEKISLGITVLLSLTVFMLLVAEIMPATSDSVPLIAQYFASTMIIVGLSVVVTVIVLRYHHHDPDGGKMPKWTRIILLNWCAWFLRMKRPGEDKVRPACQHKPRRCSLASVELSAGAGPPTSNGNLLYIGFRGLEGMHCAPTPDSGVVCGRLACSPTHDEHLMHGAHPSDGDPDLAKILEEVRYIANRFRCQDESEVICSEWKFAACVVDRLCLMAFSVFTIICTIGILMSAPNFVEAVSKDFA
Chain of Neuronal acetylcholine receptor; alpha4/beta2 (P09483 whole entry): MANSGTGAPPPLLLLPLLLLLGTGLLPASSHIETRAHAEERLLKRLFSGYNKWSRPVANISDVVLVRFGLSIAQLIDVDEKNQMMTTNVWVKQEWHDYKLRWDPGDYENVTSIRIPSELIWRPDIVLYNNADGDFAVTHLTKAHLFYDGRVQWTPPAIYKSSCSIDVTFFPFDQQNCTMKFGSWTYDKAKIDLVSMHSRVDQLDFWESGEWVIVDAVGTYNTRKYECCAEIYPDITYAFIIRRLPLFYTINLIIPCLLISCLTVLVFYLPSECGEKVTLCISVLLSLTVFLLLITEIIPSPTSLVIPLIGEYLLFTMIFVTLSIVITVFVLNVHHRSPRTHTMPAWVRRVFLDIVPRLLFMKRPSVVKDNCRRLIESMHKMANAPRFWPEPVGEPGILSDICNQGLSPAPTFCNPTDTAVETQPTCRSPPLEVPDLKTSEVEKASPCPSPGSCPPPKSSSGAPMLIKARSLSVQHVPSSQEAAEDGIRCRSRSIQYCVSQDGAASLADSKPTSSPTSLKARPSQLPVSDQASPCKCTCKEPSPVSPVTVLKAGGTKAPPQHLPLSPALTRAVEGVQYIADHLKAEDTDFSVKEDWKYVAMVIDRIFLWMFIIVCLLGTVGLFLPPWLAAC
Chain of Neuronal acetylcholine receptor; alpha4/beta2 (P12390 whole entry): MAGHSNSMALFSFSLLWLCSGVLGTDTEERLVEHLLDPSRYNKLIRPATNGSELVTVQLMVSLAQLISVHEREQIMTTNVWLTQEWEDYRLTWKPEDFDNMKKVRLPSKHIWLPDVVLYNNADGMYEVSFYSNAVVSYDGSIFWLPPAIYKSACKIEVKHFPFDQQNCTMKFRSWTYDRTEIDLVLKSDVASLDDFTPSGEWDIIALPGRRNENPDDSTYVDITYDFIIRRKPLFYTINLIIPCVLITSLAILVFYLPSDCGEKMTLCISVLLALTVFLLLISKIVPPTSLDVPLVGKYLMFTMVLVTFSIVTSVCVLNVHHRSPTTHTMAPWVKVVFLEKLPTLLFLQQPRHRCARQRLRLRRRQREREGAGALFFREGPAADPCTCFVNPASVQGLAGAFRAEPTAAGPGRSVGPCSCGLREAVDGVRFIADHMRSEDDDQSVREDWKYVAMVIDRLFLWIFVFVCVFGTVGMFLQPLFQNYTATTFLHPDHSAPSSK

Row | SMILES | Ki [1] | Ki [2] | IC50 (Rattus norvegicus)
1 | CN1CCC[C@H]1c1ccc[n+](CCCCCC[n+]2cccc([C@@H]3CCCN3C)c2)c1 | > 100 µM | – | –
2 | Cc1ccc[n+](CCCCCCCCCCC[n+]2cccc(C)c2)c1 | > 100 µM | – | –
3 | c1ccc2c[n+](CCCCCCCCC[n+]3ccc4ccccc4c3)ccc2c1 | 5.95 µM | 7.89 µM | –
4 | Cc1ccc[n+](CCCCCCCCC[n+]2cccc(C)c2)c1 | > 100 µM | 79.9 µM | –
5 | c1cc[n+](CCCCCCCCCC[n+]2ccccc2)cc1 | > 100 µM | – | –
6 | c1cc[n+](CCCCCCCC[n+]2ccccc2)cc1 | > 100 µM | 34.3 µM | –
7 | c1ccc2c(c1)ccc[n+]2CCCCCCCCCCC[n+]1cccc2ccccc21 | 2.58 µM | 37.8 µM | –
8 | CN1CCC[C@H]1c1ccc[n+](CCCCCCCCCCCC[n+]2cccc([C@@H]3CCCN3C)c2)c1 | > 100 µM | – | –
9 | c1cc[n+](CCCCCCCCCCC[n+]2ccccc2)cc1 | 57 µM | 14 µM | –
10 | c1ccc2c[n+](CCCCCCCCCC[n+]3ccc4ccccc4c3)ccc2c1 | 7.25 µM | > 100 µM | –
11 | Cc1ccc[n+](CCCCCCCC[n+]2cccc(C)c2)c1 | > 100 µM | > 100 µM | –
12 | c1ccc2c(c1)ccc[n+]2CCCCCCCCCCCC[n+]1cccc2ccccc21 | – | > 100 µM | –
13 | CN1CCC[C@H]1c1ccc[n+](CCCCCCCCCC[n+]2cccc([C@@H]3CCCN3C)c2)c1 | > 100 µM | 0.33 µM | 3.76 µM
14 | CN1CCC[C@H]1c1ccc[n+](CCCCCCCCCCC[n+]2cccc([C@@H]3CCCN3C)c2)c1 | > 100 µM | 0.43 µM | 5.22 µM
15 | COc1cc2c3cc1Oc1cc(ccc1O)C[C@@H]1c4c(cc(OC)c(O)c4Oc4ccc(cc4)C[C@@H]3N(C)CC2)CC[N+]1(C)C | 4.79 µM | 9.72 µM | –
16 | c1ccc2c[n+](CCCCCCCCCCC[n+]3ccc4ccccc4c3)ccc2c1 | 5.46 µM | – | –

Row | SMILES | Ki [1] | Ki [2] | IC50 (Rattus norvegicus)
17 | c1cc[n+](CCCCC[n+]2ccccc2)cc1 | > 100 µM | > 100 µM | –
18 | c1ccc2c(c1)ccc[n+]2CCCCCCCCCC[n+]1cccc2ccccc21 | 7.81 µM | > 100 µM | –
19 | c1ccc2c(c1)ccc[n+]2CCCCCCCC[n+]1cccc2ccccc21 | 2.39 µM | > 100 µM | –
20 | c1cc[n+](CCCCCC[n+]2ccccc2)cc1 | > 100 µM | – | –
21 | CCCCCCCC[n+]1cccc([C@@H]2CCCN2C)c1 | 23.6 µM | – | –
22 | Cc1ccc[n+](CCCCCC[n+]2cccc(C)c2)c1 | > 100 µM | > 100 µM | –
23 | c1ccc2c(c1)ccc[n+]2CCCCCCCCC[n+]1cccc2ccccc21 | 3.58 µM | 22.5 µM | –
24 | c1cc[n+](CCCCCCCCC[n+]2ccccc2)cc1 | > 100 µM | – | –
25 | c1ccc2c[n+](CCCCCCCC[n+]3ccc4ccccc4c3)ccc2c1 | 11.7 µM | 65.5 µM | –
26 | CCCCCCCCCC[n+]1cccc([C@@H]2CCCN2C)c1 | > 100 µM | 0.064 µM | –
27 | CN1CCC[C@H]1c1ccc[n+](CCCCCCCC[n+]2cccc([C@@H]3CCCN3C)c2)c1 | > 100 µM | 1.54 µM | –
28 | CN1CCC[C@H]1c1ccc[n+](CCCCCCCCC[n+]2cccc([C@@H]3CCCN3C)c2)c1 | > 100 µM | 5.03 µM | –
29 | Cc1ccc[n+](CCCCCCCCCCCC[n+]2cccc(C)c2)c1 | > 100 µM | 48.6 µM | –
30 | C[N+](C)(C)CCCCCC[N+](C)(C)C [HEXAMETHONIUM CHLORIDE] | > 100 µM | 21.7 µM | –
31 | Cc1ccc[n+](CCCCCCCCCC[n+]2cccc(C)c2)c1 | > 100 µM | > 100 µM | –
32 | c1ccc2c(c1)ccc[n+]2CCCCCC[n+]1cccc2ccccc21 | – | 39.3 µM | –
